EP0468634A1, “The use of macrocyclic aminophosphonic acid complexes as imaging agents” (THE DOW CHEMICAL COMPANY, priority 1990, dated 1992)

Experiments:
[1] = Biodistribution of Gd-DOTMP complex in a rat: Gd in femur by inductively coupled plasma spectroscopy; assay type: in vivo, Sprague Dawley rat
Method: A 150 g Sprague Dawley rat was injected with 6-100 µL portions of the Gd-DOTMP, prepared in Example 4, over a 4 day period. This rat was then sacrificed and one of its femur bones was removed and found to weigh 0.690 g. This bone was dissolved in 5 mL of concentrated HCl and analyzed for Gd by inductively coupled plasma spectroscopy. The amount of Gd found in the femur bone was 16.76 µg, which corresponds to 419 µg in the total rat skeleton, assuming the femur is 1/25th of the total skeleton. This corresponds to 25.5% of the injected dose going to the bone. That result compares favorably with similar work done with radioactive tracer ¹⁵³Sm where at these high levels of injected doses about 25-30% of the injected dose localizes in the bone. Thus the behavior of Sm-DOTMP and Gd-DOTMP are very similar in vivo.

[2] = Determination of water proton T1 relaxation time (inversion recovery NMR, 270 MHz); assay type: physicochemical; conditions: deoxygenated, Example 1 complex at 680 µMolar in 20% D₂O (vol/vol)
Method: The complex from Example 1 was deoxygenated by bubbling dry nitrogen gas through it for 20 min. The sample was then placed in a 5 mm NMR tube and placed in a 270 MHz spectrometer for determination of the water proton relaxation time.
The NMR experiment used to measure the relaxation time was the standard inversion recovery technique for measuring spin-lattice (T₁) relaxation times. In this technique the intensity of the water proton NMR resonance is measured as a function of a variable delay time between radiofrequency pulses during which the spin system relaxes toward equilibrium. The final data, which consisted of peak intensities versus delay time, was plotted and fitted to an exponential function. The characteristic time for spin magnetization to reestablish itself (T₁) is obtained from the time constant of the fitted exponential function. The value for T₁ for the complex of Example 1 was 244 mS. This compares favorably to a value of 422 mS for a Gd-DTPA, and 540 mS for Gd-DOTA when the experiment was repeated using these complexes. (The Gd-DTPA and Gd-DOTA are known commercial MRI agents.)

[3] = Quantitative biodistribution of 159Gd tracer formulation in rat (NaI scintillation counting of tissues); assay type: in vivo, Sprague Dawley rat; conditions: 100 µL via tail vein, 2 hours after injection, ligand to metal molar ratio 1.5, 0.32 mg/mL
Excerpt: Quantitative biodistributions were obtained by injecting 50-100 microliters of the composition into the rail vein of unanesthetized male Sprague Dawley rats. The rats were then placed in cages lined with absorbent paper in order to collect all urine excreted prior to sacrifice. After a given period of time, the rats were sacrificed by cervical dislocation and the various tissues dissected. The samples were then rinsed with saline, blotted dry on absorbent paper and weighed. The radioactivity in the samples was measured with a NaI scintillation counter.
A 1.45 mg sample of DOTMP, prepared by the procedure of Example B, was placed in a vial and dissolved in 760 µL of water and 5 µL of 50% (wt/wt) of NaOH. A volume of 1000 µL of Gd solution (0.3 mM Gd in O.1N HCl), which contained tracer quantities of ¹⁵⁹Gd, was placed in a separate vial and 15 µL of the DOTMP solution was added. The pH of the solution was adjusted to 7 to 8 using NaOH. The amount of Gd as a complex was determined to be > 99% by cation exchange chromatography. This formulation has a ligand to metal molar ratio of 1.5.
A Sprague Dawley rat was injected with the above prepared formulation and the biodistribution determined. The rat was allowed to acclimate for five days then injected with 100 µL of the Gd solution described above via a tail vein. The rat weighed between 150 and 200 g at the time of injection. After 2 hours the rat was killed by cervical dislocation. Tissues were taken, weighed and the amount of radioactivity in each tissue was determined by counting in a NaI scintillation counter coupled to a multichannel analyzer. The counts in each tissue were compared to the counts in 100 µL standards in order to determine the percentage of the injected dose in each tissue or organ. The ligand (DOTMP) to metal (Gd) molar ratio = 1.5.

For Gd-DOTMP [Example 1], the “amount of Gd found in the femur bone” value ([1]; 150 g rat, 6-100 µL portions over a 4 day period, femur 0.690 g, ICP) was 16.76 µg, the “% of the injected dose going to the bone” value ([1]; 150 g rat, 6-100 µL portions over a 4 day period, from femur Gd) was 25.5% and the “Gd in the total rat skeleton” value ([1]; assuming the femur is 1/25th of the total skeleton) was 419 µg. For the same compound, the “T₁ (spin-lattice relaxation time of water protons)” value [2] was 244 mS.
In the case of `O=C([O-])CN(CCN(CC(=O)[O-])CC(=O)O)CCN(CC(=O)[O-])CC(=O)O.[Gd+3]` [Gd-DTPA], the “T₁ (spin-lattice relaxation time of water protons)” value [2] is reported as 422 mS.
For ¹⁵⁹Gd-DOTMP [Ho-DOTMP], the “% OF INJECTED DOSE (159Gd) in Blood” value [3] was 0.08%, the “% OF INJECTED DOSE (159Gd) in Bone” value [3] was 50% and the “% OF INJECTED DOSE (159Gd) in Kidney” value [3] was 0.25%. The “% OF INJECTED DOSE (159Gd) in Liver” value [3] was 0.08%.
In the case of `O=C([O-])CN1CCN(CC(=O)[O-])CCN(CC(=O)O)CCN(CC(=O)[O-])CC1.[Gd+3]` [Gd-DOTA], the “T₁ (spin-lattice relaxation time of water protons)” value [2] is reported as 540 mS.
